Series [1] relates to rgRSV224 virus. Nature of the series: Antiviral activity: rgRSV224 (GFP-expressing RSV) replication in HeLa cells, GFP expression measured three days post-virus exposure. It is filed as cell-based. The following applies: human respiratory syncytial virus, 72 h, read-out: WT activity pEC50 (converted). On the procedure: (§1) Black 96-well clear-bottom microtiter plates (Corning, Amsterdam, The Netherlands) were filled in duplicate using a customized robot system with serial 4-fold dilutions of compound in a final volume of 50 μl culture medium [RPMI medium without phenol red, 10% FBS, 0.04% gentamycin (50 mg/ml) and 0.5% DMSO]. Then, 100 μl of a HeLa cell suspension (5×10^4 cells/ml) in culture medium was added to each well followed by the addition of 50 μl rgRSV224 (MOI=0.02) virus in culture medium using a multidrop dispenser (Thermo Scientific, Erembodegem, Belgium). rgRSV224 virus is an engineered virus that includes an additional GFP gene (Hallak et al, 2000) and was in-licensed from the NIH (Bethesda, Md., USA). Medium, virus- and mock-infected controls were included in each test. Cells were incubated at 37° C. in a 5% CO2 atmosphere. Three days post-virus exposure, viral replication was quantified by measuring GFP expression in the cells by a MSM laser microscope (Tibotec, Beerse, Belgium). The EC50 was defined as the 50% inhibitory concentration for GFP expression. In parallel, compounds were incubated for three days in a set of white 96-well microtitier plates (Corning) and the cytotoxicity of compounds in HeLa cells was determined by measuring the ATP content of the cells using the ATPlite kit (PerkinElmer, Zaventem, Belgium) according to the manufacturer's instructions. The CC50 was defined as the 50% concentration for cytotoxicity.

Series [2] is described as follows: in vitro. It counts as cell-based. To be noted: human. Here is the method:
as §1

`O=c1n(Cc2nc3nc(Cl)ccc3n2CCCCF)c2cnccc2n1-c1nccs1`: the melting point (as a rule, the temperature, or range, at which the solid turns liquid) was 238 °C.
`CC(C)(C)OC(=O)N1CC(n2c(=O)n(Cc3cc4cc(Cl)ccc4n3CCCS(C)(=O)=O)c3cnccc32)C1` [Compound P1, tert-butyl-3-(3-((5-chloro-1-(3-(methylsulfonyl)propyl)-1H-indol-2-yl)methyl)-2-oxo-2,3-dihydro-1H-imidazo[4,5-c]pyridin-1-yl)azetidine-1-carboxylate] had a melting point of 195 °C. The EC50 in series [1] was 0.00501 µM. Also, in series [2], the CC50 (commonly the concentration at which the toxic effect on the cells reaches its halfway point) at 3 days was 50.1 µM.
In turn, `CC(C)(C)OC(=O)N1CC(n2c(=O)n(Cc3cc4cc(Cl)ccc4n3CCCS(C)(=O)=O)c3cc(F)ccc32)C1` [Compound P2, tert-butyl 3-(3-((5-chloro-1-(3-(methylsulfonyl)propyl)-1H-indol-2-yl)methyl)-5-fluoro-2-oxo-2,3-dihydro-1H-benzo[d]imidazol-1-yl)azetidine-1-carboxylate] came in with a melting point of 185 °C. Besides, in series [1], the EC50 is 0.0126 µM. This compound also gave a CC50 at 3 days in series [2] of 10 µM.
The compound `CS(=O)(=O)CCCn1c(Cn2c(=O)n(C3CN(S(C)(=O)=O)C3)c3ccncc32)cc2cc(Cl)ccc21` [Compound P5, 3-((5-chloro-1-(3-(methylsulfonyl)propyl)-1H-indol-2-yl)methyl)-1-(1-(methylsulfonyl)azetidin-3-yl)-1H-imidazo[4,5-c]pyridin-2(3H)-one] returned a melting point of 240 °C. Further, the EC50 in series [1] is 0.00158 µM. Besides, it took 100 µM to reach half-maximal cytotoxicity in series [2] (CC50 at 3 days).
The matching figures for `CC(=O)N1CC(n2c(=O)n(Cc3cc4cc(Cl)ccc4n3CCCS(C)(=O)=O)c3cnccc32)C1` [Compound P6, 1-(1-acetylazetidin-3-yl)-3-((5-chloro-1-(3-(methylsulfonyl)propyl)-1H-indol-2-yl)methyl)-1H-imidazo[4,5-c]pyridin-2(3H)-one]: 252 °C, 0.00398 µM and greater than 25.1 µM.
Regarding `CC(C)(C)n1c(=O)n(Cc2cc3cc(Cl)ccc3n2CCCS(C)(=O)=O)c2cnccc21` [Compound P8, 1-tert-butyl-3-((5-chloro-1-(3-(methylsulfonyl)propyl)-1H-indol-2-yl)methyl)-1H-imidazo[4,5-c]pyridin-2(3H)-one], the melting point was determined as 226 °C. Further, in series [1], the EC50 is 0.00251 µM. In series [2], this compound showed a CC50 at 3 days of 39.8 µM.
On to `O=c1n(Cc2cc3cc(Cl)ccc3n2CCCCF)c2cnccc2n1-c1nccs1` [Compound P11, 3-((5-chloro-1-(4-fluorobutyl)-1H-indol-2-yl)methyl)-1-(thiazol-2-yl)-1H-imidazo[4,5-c]pyridin-2(3H)-one], for which the melting point is 240 °C. The EC50 in series [1] is 0.0126 µM. Besides, the CC50 at 3 days in series [2] is greater than 25.1 µM.
For `COc1ccc(-n2c(=O)n(Cc3cc4cc(Cl)ccc4n3CCCC#N)c3cnccc32)cc1OC` [Compound P19, 4-(5-chloro-2-((1-(3,4-dimethoxyphenyl)-2-oxo-1H-imidazo[4,5-c]pyridin-3(2H)-yl)methyl)-1H-indol-1-yl)butanenitrile], in that order: 176.51 °C, 0.000126 µM and greater than 100 µM.
On to `COc1ccc(-n2c(=O)n(Cc3cc4cc(Cl)ccc4n3CCCC#N)c3cnccc32)c(C)c1` [Compound P20, 4-(5-chloro-2-((1-(4-methoxy-2-methylphenyl)-2-oxo-1H-imidazo[4,5-c]pyridin-3(2H)-yl)methyl)-1H-indol-1-yl)butanenitrile], for which the melting point stood at 172.59 °C. Further, in series [1], the EC50 is 0.000398 µM. In addition, the CC50 at 3 days in series [2] was greater than 100 µM.
Compound `CC(C)CCn1c(Cn2c(=O)n(-c3nccs3)c3ccncc32)nc2nc(Cl)ccc21` [Compound P22, 3-((5-chloro-1-isopentyl-1H-imidazo[4,5-b]pyridin-2-yl)methyl)-1-(thiazol-2-yl)-1H-imidazo[4,5-c]pyridin-2(3H)-one] showed a melting point of 231.23 °C. Also, the EC50 in series [1] was 0.00398 µM. The same compound had a CC50 at 3 days in series [2] of 25.1 µM.
For `N#CCCCn1c(Cn2c(=O)n(-c3ccncn3)c3ccncc32)cc2cc(Cl)ccc21` [Compound P24, 4-(5-chloro-2-((2-oxo-1-(pyrimidin-4-yl)-1H-imidazo[4,5-c]pyridin-3(2H)-yl)methyl)-1H-indol-1-yl)butanenitrile], in that order: 229.17 °C, 0.01 µM and greater than 50.1 µM.
The matching figures for `CC(C)CCn1c(Cn2c(=O)n(-c3nccs3)c3ccc(F)cc32)nc2nc(Cl)ccc21` [Compound P25, 3-((5-chloro-1-isopentyl-1H-imidazo[4,5-b]pyridin-2-yl)methyl)-5-fluoro-1-(thiazol-2-yl)-1H-benzo[d]imidazol-2(3H)-one]: 264.42 °C, 0.0158 µM and greater than 50.1 µM.
The matching figures for `CC(C)CCn1c(Cn2c(=O)n(-c3ccncc3F)c3ccncc32)nc2nc(Cl)ccc21` [Compound P26, 3-((5-chloro-1-isopentyl-1H-imidazo[4,5-b]pyridin-2-yl)methyl)-1-(3-fluoropyridin-4-yl)-1H-imidazo[4,5-c]pyridin-2(3H)-one]: 123.79 °C, 0.0251 µM and greater than 100 µM.
Regarding `N#CCCCn1c(Cn2c(=O)n(-c3nccs3)c3ccc(F)cc32)cc2cc(Cl)ccc21` [Compound P27, 4-(5-chloro-2-((6-fluoro-2-oxo-3-(thiazol-2-yl)-2,3-dihydro-1H-benzo[d]imidazol-1-yl)methyl)-1H-indol-1-yl)butanenitrile], the melting point worked out at 238.29 °C. For the same compound, the EC50 in series [1] was 0.0316 µM. In addition, the half-maximal cytotoxic concentration (CC50) at 3 days in series [2] is greater than 100 µM.
The matching figures for `COc1ccc(-n2c(=O)n(Cc3cc4cc(Cl)ccc4n3CCCCF)c3cnccc32)cc1` [Compound P32, 3-((5-chloro-1-(4-fluorobutyl)-1H-indol-2-yl)methyl)-1-(4-methoxy-phenyl)-1H-imidazo[4,5-c]pyridin-2(3H)-one]: 163 °C, 0.00398 µM and 79.4 µM.
`O=c1n(Cc2cc3cc(Cl)ccc3n2CCCCF)c2cnccc2n1-c1ccc(Cl)cc1` [Compound P34, 3-((5-chloro-1-(4-fluorobutyl)-1H-indol-2-yl)methyl)-1-(4-chlorophenyl)-1H-imidazo[4,5-c]pyridin-2(3H)-one] gave a melting point of 168 °C. In addition, the EC50 in series [1] was 0.0316 µM. The compound further came in with a CC50 at 3 days in series [2] greater than 100 µM.
Take `COc1ccc(-n2c(=O)n(Cc3cc4cc(Cl)ccc4n3CCCS(C)(=O)=O)c3cnccc32)cc1` [Compound P35, 3-((5-chloro-1-(3-(methylsulfonyl)propyl)-1H-indol-2-yl)methyl)-1-(4-methoxyphenyl)-1H-imidazo[4,5-c]pyridin-2(3H)-one]: the melting point came out at 215 °C. For the same compound, the EC50 in series [1] was 0.000316 µM. The compound further showed a CC50 at 3 days in series [2] of 31.6 µM.
As for `Cn1ccc(-n2c(=O)n(Cc3cc4cc(Cl)ccc4n3CCCC#N)c3cnccc32)n1` [Compound P36, 4-(5-chloro-2-((1-(1-methyl-1H-pyrazol-3-yl)-2-oxo-1H-imidazo[4,5-c]pyridin-3(2H)-yl)methyl)-1H-indol-1-yl)butanenitrile], the melting point came to 244 °C. In series [1], the EC50 is 0.00158 µM. In series [2], this compound showed a CC50 at 3 days of 63.1 µM.
Regarding `N#CCCCn1c(Cn2c(=O)n(-c3ccncc3)c3ccncc32)cc2cc(Cl)ccc21` [Compound P48, 4-(5-chloro-2-((2-oxo-1-(pyridin-4-yl)-1H-imidazo[4,5-c]pyridin-3(2H)-yl)methyl)-1H-indol-1-yl)butanenitrile], in series [1], the EC50 was 0.00251 µM. In series [2], the CC50 at 3 days is greater than 100 µM.
`N#CCCCn1c(Cn2c(=O)n(-c3nccs3)c3ccncc32)cc2cc(Cl)ccc21` [Compound P49, 4-(5-chloro-2-((2-oxo-1-(thiazol-2-yl)-1H-imidazo[4,5-c]pyridin-3(2H)-yl)methyl)-1H-indol-1-yl)butanenitrile]: the EC50 in series [1] is 0.00631 µM. In series [2], this compound displayed a half-maximal cytotoxic concentration (CC50) at 3 days greater than 25.1 µM.
Take `COC(=O)c1ccc(-n2c(=O)n(Cc3cc4cc(Cl)ccc4n3CCCC#N)c3cnccc32)cc1` [Compound P51, methyl 4-(3-((5-chloro-1-(3-cyanopropyl)-1H-indol-2-yl)methyl)-2-oxo-2,3-dihydro-1H-imidazo[4,5-c]pyridin-1-yl)benzoate]: in series [1], the EC50 was 0.000794 µM. The compound also gave a CC50 at 3 days in series [2] of 39.8 µM.
The matching figures for `N#CCCCn1c(Cn2c(=O)n(-c3ccc(C(=O)O)cc3)c3ccncc32)cc2cc(Cl)ccc21` [Compound P52, 4-(3-((5-chloro-1-(3-cyanopropyl)-1H-indol-2-yl)methyl)-2-oxo-2,3-dihydro-1H-imidazo[4,5-c]pyridin-1-yl)benzoic acid]: 0.000501 µM and greater than 25.1 µM.
With `N#CCCCn1c(Cn2c(=O)n(-c3ccc(C(=O)NC4CC4)cc3)c3ccncc32)cc2cc(Cl)ccc21` [Compound P53, 4-(3-((5-chloro-1-(3-cyanopropyl)-1H-indol-2-yl)methyl)-2-oxo-2,3-dihydro-1H-imidazo[4,5-c]pyridin-1-yl)-N-cyclopropylbenzamide], the EC50 in series [1] is 0.000501 µM. Also, the CC50 at 3 days in series [2] is 25.1 µM.

(Values after patent publication US9845321B2, “1,3-dihydro-2H-benzimidazol-2-one derivatives substituted with heterocycles as respiratory syncytial virus antiviral agents” (JANSSEN SCIENCES IRELAND UC, priority 2012, dated 2017).)
